As a reminder, the Ki is a measure of affinity in units of concentration, obtained from inhibition or displacement.

Entries after “also recorded” stand apart in the source; their conditions may differ. Like-named read-outs stand apart in the source and are kept apart here.

One assay concerns ova-challenged mice. In words: Ovalbumin-induced lung inflammation (allergic asthma) model, airway hyperresponsiveness. The class given is in vivo. As to conditions: FIGS. 1 and 2, compared to control. An excerpt:
Ovalbumin-induced allergic asthma is a widely used model to reproduce the airway eosinophilia, pulmonary inflammation and elevated IgE levels found during asthma. Studies can be run with or without airway hyper-responsiveness (AHR) measurements. Allergic asthma is typically triggered by allergens in the air such as pollen, mold, dust mites, etc., and is commonly characterized by reversible […], elevated levels of IgE causing mast cell activation, chronic airway inflammation, and airway hyper-responsiveness (AHR). The immunological processes involved are characterized by proliferation and activation of Th2 lymphocytes, setting off an allergic cascade.
FIGS. 1 and 2 illustrate Compound A and Control compounds in the ovalbumin-induced lung inflammation model. For detailed procedures, see Hamelmann E, Schwarze J, Takeda K, Oshiba A, Larsen G L, Irvin C G, and Gelfand E W. Noninvasive measurement of airway responsiveness in allergic mice using barometric plethysmography. Am. J. Respir. Crit. Care Med 156: 766-775, 1997, herein incorporated by reference.

For another assay, the target named is T1, human α7 (Homo sapiens, UniProt P36544).
T1 construct: expressed in transfected cells; host or cells: HEK cells expressing human α7 and RIC3, obtained from J. Lindstrom, U. Pennsylvania; membranes prepared from the cells
Put plainly: Competition binding to human α7 nicotinic receptor in membrane preparations. On the procedure:
(§1) SH-EP1/human α4β2 (Eaton et al., 2003), SH-EP1/human α4β4 (Gentry et al., 2003), SH-EP1/α6β3β4α5 (Grinevich et al., 2005), TE671/RD and SH-SY5Y cell lines (obtained from Dr. Ron Lukas, Barrow Neurological Institute, St. Joseph's Hospital and Medical Center, Phoenix, Ariz.) were maintained in proliferative growth phase in Dulbecco's modified Eagle's medium (Gibco/BRL) with 10% horse serum (Gibco BRL), 5% fetal bovine serum (HyClone, Logan Utah), 1 mM sodium pyruvate, 4 mM L-glutamine. For maintenance of stable transfectants, the α4β2 and α4β4 cell media was supplemented with 0.25 mg/mL zeocin and 0.13 mg/mL hygromycin B. Selection was maintained for the α6β3β4α5 cells with 0.25 mg/mL of zeocin, 0.13 mg/mL of hygromycin B, 0.4 mg/mL of geneticin, and 0.2 mg/mL of blasticidin. HEK/human α7/RIC3 cells (obtained from J. Lindstrom, U. Pennsylvania, Philadelphia, Pa.) were maintained in proliferative growth phase in Dulbecco's modified Eagle's medium (Gibco/BRL) with 10% fetal bovine serum (HyClone, Logan Utah), 1 mM sodium pyruvate, 4 mM L-glutamine, 0.4 mg/mL geneticin; 0.2 mg/ml hygromycin B.
(§2) Cells were harvested in ice-cold PBS, pH 7.4, then homogenized with a polytron (Brinkmann Instruments, Westbury, N.Y.). Homongenates were centrifuged at 40,000 g for 20 minutes (4° C.). The pellet was resuspended in PBS and protein concentration determined using the Pierce BCA Protein Assay kit (Pierce Biotechnology, Rockford, Ill.).
(§3) Binding to nicotinic receptors was assayed on membranes using standard methods adapted from published procedures (Lippiello and Fernandes, 1986; Davies et al., 1999). In brief, membranes were reconstituted from frozen stocks (approximately 0.2 mg protein) and incubated for 2 h on ice in […] assay buffer (PBS) in the presence of competitor compound (0.001 nM to 100 mM) and radioligand. […] Filters were washed 3 times and the radioactivity retained was determined by liquid scintillation counting.
(§4) Binding data were expressed as percent total control binding. […] Ki was calculated using the Cheng-Prusoff equation (Cheng and Prusoff, 1973).

For the next assay, the target named is T2, human α4β2 (Homo sapiens, UniProt P17787+P43681).
T2 construct: expressed in transfected cells; membranes prepared from the cells
In words: Competition binding to human α4β2 nicotinic receptor in membrane preparations. On the procedure: as §1, §2, §3, §4

[1] abbreviates: SH-EP1/human α4β2 cell membranes, [3H]-nicotine, Cheng-Prusoff, read-out: Human α4β2 Ki.

For the compound `Cc1cc2nc(N3CCN4CCC3CC4)cc(=O)n2o1` [Compound A, 5-(1,4-diazabicyclo[3.2.2]nonan-4-yl)-2-methyl-7H-isoxazolo[2,3-a]pyrimidin-7-one], the “methacholine (MCh)-induced bronchoconstriction (Penh, index of airway resistance)” value in the assay on ova-challenged mice is on record as “statistically significant results; also recorded: reduces methacholine (MCh)-induced bronchoconstriction”. For the compound `O=c1cc(N2CCN3CCC2CC3)nc2cc(-c3ccccc3)on12`, the Ki was determined as 0.28 µM on human α7 (HEK/human α7/RIC3 cell membranes, [3H]-epibatidine, Cheng-Prusoff, read-out: Human α7 Ki) and 1.2 µM at human α4β2 (setting [1]).

For the compound `O=c1cc(N2CCN3CCC2CC3)nc2c3ccccc3on12`, the Ki came to 0.055 µM on human α7 and 1.2 µM at human α4β2. As to `Cc1cc2nc(N3CCN4CCC3CC4)cc(=O)n2o1` [drawing 5], the values for the Ki at human α7 and at human α4β2 (setting [1]) were 0.042 µM and 3.2 µM, respectively.

Values taken from patent publication US20140249141A1, “1,4-DIAZABICYCLO[3.2.2]NONANES AS NEURONAL NICOTINIC ACETYLCHOLINE RECEPTOR LIGANDS” (Targacept, Inc., priority 2011, published 2014).
